Test results reported in article PMC3538728 (PLoS ONE, 2013).
Values joined by “and” are separate entries in the source; they are usually repeats but may differ in a detail not shown here. Equal entries are not always repeated. Where two headings read alike, the source gives them in different places. Marks after values point to notes of the source that are not given here.

Biological target: T1, γ-secretase (Homo sapiens, UniProt P49768)
T1 construct: γ-Secretase is composed of four subunits: Aph1, Pen2, glycosylated nicastrin, and endo-proteolyzed presenilin as the catalytic core; endogenous in cells; host or cells: HeLa S3 (ATCC CCL-2.2)
Assay: Aβ 1–40 secretion from HeLa cells in the presence of DAPT (sandwich ELISA), dose-response fits
Assay type: cell-based
Source text: HeLa cells have been transfected using Lipofectamine LTX™ reagent following the manufacturer instructions. The transfection protocol and concentration of pSG5-cDNAwtC99 plasmid have been optimized to achieve desired assay sensitivity, a gradual increase in the substrate expression level, and a smooth transition from biphasic to the standard dose-response curves (Figs. 2–3). Initially concentration of pSG5-cDNAwtC99 plasmid have been optimized by western blots using anti-flag αM2 monoclonal antibody as described in our previous study. The cells were transfected in 24-well plates. The day before transfection the cells were trypsinized and counted. About 0.85×10^5 cells were seeded per well in 0.5 ml of complete growth medium to achieve about 75% confluent cultures on the day of transfection. Before the transfection old medium was removed and replaced with fresh 0.5 ml of complete growth medium. For transfection 5X DNA concentration was diluted in 500 µl of Opti-MEM®I Reduced Serum Media and mixed with 0.7 µl of Lipofectamine LTX™ Reagent. The solution was gently mixed and incubated for 30 minutes at room temperature to form DNA- Lipofectamine LTX™ Reagent complexes. Following the 30 min incubation, 100 µl of the DNA- Lipofectamine LTX™ Reagent complexes was added directly to each well containing cells and mixed gently by rocking the plate back and forth. The cells were incubated at 37°C in a CO2 incubator for 18 hours.
Fresh medium was added 18 hours after the transfection (0.5 ml per well), to prepare the cells for incubation with DAPT [18], [51]. Different concentrations of DAPT were prepared in DMSO, and added to the cells so that the final DMSO concentration in the culture was 0.1% (v/v). DMSO vehicle represents 0 nM DAPT. The cells were incubated with DAPT at given concentrations for 15 hours.
The assay linear response is in the range from 6–125 pM of Aβ 1–40. The assays were performed by closely following the manufacturer instructions. […] Each well was filled with 50 µl of the antibody conjugate solution and 50 µl of sample. The Aβ 1–40 standards were supplied by the manufacturer and prepared in parallel with other samples. All of the prepared wells were wrapped in aluminum foil and incubated overnight at 4°C with gentle mixing. The next day each well was washed five times with 300 µl of wash solution. After each […] wash, the wash solution was poured out and the wells were dried by tapping the plates on an absorbing paper. Washed wells were filled with 100 µl of the enzyme conjugate solution, covered, and incubated for 30 min at room temperature with shaking. The washing procedure was repeated once again to remove excess of the enzyme-conjugate. Next 100 µl of the substrate solution was added in each well in dark, and kept for 30 minutes covered at room temperature. The reaction was quenched by adding 50 µl of stop solution to each well, and within 15 min the signal intensity was read by measuring absorption at 450 nm.
All experimental results were analyzed using MicroCal Origin 7.0 program, nonlinear regressions, and equations that represent specific mechanism. All results are reported as the best fit value ± standard error with two-sigma confidence intervals shown in square brackets (i.e. x±y [p, q]). Briefly, the standard error indicates random errors (i.e. precision) for each method, while the two sigma confidence intervals indicate the ability of given experimental setup to provide information about specific best-fit parameter. The random error for presented experiments is low, as indicated by a low scatter from the best fit values. The sharp confidence intervals can be obtained by taking a large number of independent data points that cover all segments that define the measured functions. […]

[1] = HeLa, 250 ng/mL pSG5-cDNAwtC99, eqn. 2
[2] = HeLa, 400 ng/mL pSG5-cDNAwtC99, eqn. 2
[3] = HeLa, 600 ng/mL pSG5-cDNAwtC99, eqn. 2
[4] = HeLa, 800 ng/mL pSG5-cDNAwtC99, eqn. 2
[5] = average over 0-92 ng/mL pSG5-cDNAwtC99
[6] = untransfected HeLa cells, eqn. 1, six free fit parameters
[7] = untransfected HeLa cells, eqn. 1 with IA and MI as constants
[8] = untransfected HeLa cells, measured separately, taken as constant in regression

T1 sequence (Q9NZ42 whole entry, other chains not shown): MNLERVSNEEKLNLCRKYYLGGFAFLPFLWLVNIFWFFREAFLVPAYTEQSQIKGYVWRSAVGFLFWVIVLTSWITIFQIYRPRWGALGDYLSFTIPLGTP
T1 sequence (Q92542 34-709, other chains not shown, further chain): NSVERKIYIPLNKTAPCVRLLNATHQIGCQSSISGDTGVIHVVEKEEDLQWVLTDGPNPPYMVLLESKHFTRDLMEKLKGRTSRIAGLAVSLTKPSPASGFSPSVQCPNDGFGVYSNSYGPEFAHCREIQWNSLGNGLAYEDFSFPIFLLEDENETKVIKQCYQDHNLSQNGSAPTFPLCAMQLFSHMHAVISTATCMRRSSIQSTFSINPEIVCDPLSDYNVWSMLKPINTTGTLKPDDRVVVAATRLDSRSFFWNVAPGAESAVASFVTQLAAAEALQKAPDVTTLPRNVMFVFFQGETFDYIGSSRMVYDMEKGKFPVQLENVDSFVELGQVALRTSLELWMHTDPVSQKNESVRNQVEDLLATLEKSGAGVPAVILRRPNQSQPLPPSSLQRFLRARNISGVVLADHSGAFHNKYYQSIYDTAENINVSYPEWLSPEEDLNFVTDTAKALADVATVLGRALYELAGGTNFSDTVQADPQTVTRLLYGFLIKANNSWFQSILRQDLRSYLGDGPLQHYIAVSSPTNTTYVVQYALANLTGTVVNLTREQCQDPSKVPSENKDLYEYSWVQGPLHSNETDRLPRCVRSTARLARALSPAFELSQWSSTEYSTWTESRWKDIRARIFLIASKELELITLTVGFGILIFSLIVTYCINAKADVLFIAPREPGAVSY
T1 sequence (Q96BI3 whole entry, other chains not shown, further chain): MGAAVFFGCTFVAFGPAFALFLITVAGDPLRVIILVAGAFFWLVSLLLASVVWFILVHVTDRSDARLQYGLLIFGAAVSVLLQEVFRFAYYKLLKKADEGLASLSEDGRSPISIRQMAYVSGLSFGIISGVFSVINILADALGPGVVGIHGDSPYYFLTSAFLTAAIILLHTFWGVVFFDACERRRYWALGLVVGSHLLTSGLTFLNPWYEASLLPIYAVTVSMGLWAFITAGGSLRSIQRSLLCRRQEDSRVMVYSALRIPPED

C[C@H](NC(=O)Cc1cc(F)cc(F)c1)C(=O)N[C@H](C(=O)OC(C)(C)C)c1ccccc1 [DAPT, N-[N-(3,5-difluorophenacetyl)-L-alanyl]-S-phenylglycine t-butyl ester]
Maximal Inhibition, MI (HeLa, 92 ng/mL pSG5-cDNAwtC99, eqn. 1): 1.9 ± 0.6 pM per 10^6 cells
Initial Activity, IA (HeLa, 92 ng/mL pSG5-cDNAwtC99, eqn. 1, activity at zero DAPT): 119 ± 4 pM per 10^6 cells
EC50 (HeLa, 92 ng/mL pSG5-cDNAwtC99, eqn. 1, read-out: Activation EC50): 178 ± 45 nM
IC50 (HeLa, 92 ng/mL pSG5-cDNAwtC99, eqn. 1, read-out: Inhibition IC50): 661 ± 80 nM
Inhibition Hill's coef [1]: 1.02 ± 0.07
Maximal Inhibition, MI [1]: -0.9 ± 0.4 pM per 10^6 cells
Initial Activity, IA (HeLa, 250 ng/mL pSG5-cDNAwtC99, eqn. 2, activity at zero DAPT): 229 ± 4 pM per 10^6 cells
IC50 (HeLa, 250 ng/mL pSG5-cDNAwtC99, standard dose-response, eqn. 2, read-out: Inhibition IC50): 126 ± 9 nM
Inhibition Hill's coef [2]: 0.95 ± 0.04
Maximal Inhibition, MI [2]: 2.0 ± 0.9 pM per 10^6 cells
Initial Activity, IA (HeLa, 400 ng/mL pSG5-cDNAwtC99, eqn. 2, activity at zero DAPT): 190 ± 2 pM per 10^6 cells
IC50 (HeLa, 400 ng/mL pSG5-cDNAwtC99, standard dose-response, eqn. 2, read-out: Inhibition IC50): 110 ± 8 nM
Inhibition Hill's coef [3]: 0.84 ± 0.03
Maximal Inhibition, MI [3]: -4 ± 2 pM per 10^6 cells
Initial Activity, IA (HeLa, 600 ng/mL pSG5-cDNAwtC99, eqn. 2, activity at zero DAPT): 140 ± 4 pM per 10^6 cells
IC50 (HeLa, 600 ng/mL pSG5-cDNAwtC99, standard dose-response, eqn. 2, read-out: Inhibition IC50): 98 ± 6 nM
Inhibition Hill's coef [4]: 0.61 ± 0.07
Maximal Inhibition, MI [4]: 2 ± 0.8 pM per 10^6 cells
Initial Activity, IA (HeLa, 800 ng/mL pSG5-cDNAwtC99, eqn. 2, activity at zero DAPT): 90 ± 1 pM per 10^6 cells
IC50 (HeLa, 800 ng/mL pSG5-cDNAwtC99, standard dose-response, eqn. 2, read-out: Inhibition IC50): 89 ± 5 nM
mode of inhibition (at saturating C99 substrate): noncompetitive inhibitor
Activation Hill coef., average [5]: 1.0 ± 0.1
Inhibition Hill's coef, average [5]: 2.1±0.2
Maximal Inhibition, MI, average [5]: 0.5 ± 0.2 pM per 10^6 cells
IC50 (average over 0-92 ng/mL pSG5-cDNAwtC99 (all biphasic curves), read-out: Inhibition IC50, average): 534 ± 53 nM
EC50 (average over 0-92 ng/mL pSG5-cDNAwtC99 (all biphasic profiles), read-out: Activation EC50, average): 111 ± 41 nM
Maximal Activity, MA, average (average over 0-92 ng/mL pSG5-cDNAwtC99 (biphasic curves)): 189 pM per 10^6 cells
Maximal Inhibition, MI, average (average over 250-800 ng/mL pSG5-cDNAwtC99): -0.5 ± 0.6 pM per 10^6 cells
IC50 (average over 250-800 ng/mL pSG5-cDNAwtC99 (standard dose-response curves), read-out: Inhibition IC50, average): 106 ± 16 nM
potential to activate γ-secretase activity (MA vs. IA) (if binding only at the activation site, 31 pM vs. 196 pM Aβ 1–40 per 10^6 cells): ~7 fold
cDNAwtC99 required to reach activation by DAPT (transfection without DAPT giving same Aβ 1-40 secretion as endogenous substrate at 33 nM DAPT): 70 ng/mL
cDNAwtC99 required to reach activation by DAPT (transfection without DAPT giving same Aβ 1-40 secretion as endogenous substrate at 100 nM DAPT): 120 ng/mL
cDNAwtC99 required to reach activation by DAPT (transfection without DAPT giving same Aβ 1-40 secretion as endogenous substrate at 333 nM DAPT): 118 ng/mL
cDNAwtC99 required to reach activation by DAPT (transfection without DAPT giving same Aβ 1-40 secretion as endogenous substrate at 500 nM DAPT): 100 ng/mL
cDNAwtC99 required to reach activation by DAPT (transfection without DAPT giving same Aβ 1-40 secretion as endogenous substrate at 1000 nM DAPT): 16 ng/mL
activity on Endogenous substrate (Aβ 1-40 secreted) (untransfected HeLa cells, 33 nM DAPT): 81.1 pM per 10^6 cells
activity on Endogenous substrate (Aβ 1-40 secreted) (untransfected HeLa cells, 100 nM DAPT): 132 pM per 10^6 cells and 132.0 pM per 10^6 cells
activity on Endogenous substrate (Aβ 1-40 secreted) (untransfected HeLa cells, 333 nM DAPT): 129.0 pM per 10^6 cells
activity on Endogenous substrate (Aβ 1-40 secreted) (untransfected HeLa cells, 500 nM DAPT): 111.6 pM per 10^6 cells
activity on Endogenous substrate (Aβ 1-40 secreted) (untransfected HeLa cells, 1000 nM DAPT): 43.0 pM per 10^6 cells
observed maximal activity, Aβ 1–40 secreted (untransfected HeLa cells, at 108 nM DAPT): 145 pM per 10^6 cells
Activation Hill's coef [6]: 1.09 ± 0.4
Inhibition Hill's coef [6]: 1.9±0.5 and 1.92 ± 0.5
Activation Hill's coef [7]: 1.09 ± 0.16
Inhibition Hill's coef [7]: 1.92 ± 0.25
Maximal Activity, MA [7]: 196 ± 35 pM per 10^6 cells
EC50 (untransfected HeLa cells, eqn. 1 with IA and MI as constants, read-out: Activation EC50): 72 ± 9 nM
IC50 (untransfected HeLa cells, eqn. 1 with IA and MI as constants, read-out: Inhibition IC50): 472 ± 35 nM
Initial Activity, IA [8]: 31 ^c pM per 10^6 cells
Maximal Inhibition, MI [8]: 0 ^c pM per 10^6 cells
DAPT concentration at which maximal activity is observed (untransfected HeLa cells, peak of biphasic curve): 108 nM
